Laboratory results as given in PMC11148772, “Inhibition of protein translational machinery in triple-negative breast cancer as a promising therapeutic strategy” (Cell Reports Medicine, 2024).

Tests used:
[1] = system: CA1262-PDX-TNBC and MA2821-PDX-TNBC tumors; experiment: Immunoblot of PDX tumor lysates; format: in vivo, mouse; details: daily oral 50 mg/kg for 3 weeks
Protocol: MDA-MB-231, MDA-MB-468, and SUM159 cells were grown to 60–70% confluency and treated with DMSO and SU056 (1 μM) for 12 and 24 h. After the specific treatment time was over, total cell lysates were prepared in non-denaturing lysis buffer. For protein lysate from tumors: randomly selected frozen sample; three from vehicle and SU056 treated group were homogenized in non-denaturing lysis buffer at 4°C for 5 min. 10 μg of protein lysate per sample was resolved on 8–16% SDS-PAGE. Membranes were probed with specific primary antibodies followed by detection with HRP-conjugated appropriate secondary antibodies, visualized by enhanced chemiluminescence detection system, and imaged using an iBright imaging system (Thermo Fisher, USA).

[2] = system: TNBC cells (MDA-MB-231, MDA-MB-468, SUM159, 4T1, EMT6); experiment: Clonogenic (colony-formation) assay; format: cell-based
Protocol: We performed a clonogenic assay to check the effect of SU056 on clonal expansion potential of MDA-MB-231, MDA-MB-468, SUM159, 4T1, EMT6, and E0771 cells on tissue culture plates. MDA-MB-231 (1000 cells), MDA-MB-468 (1000 cells), SU159 (300 cells), 4T1 (300 cells), and EMT6 (300 cells), were seeded and grown for 24 h in complete media onto 12-well culture plate. Cells were treated with the specific concentrations of SU056 for 7–10 days in complete media. Plates were processed for crystal violet staining, and the number of colonies was counted for each well. Colonies were scanned for confluency area using a Tecan multimode plate reader.

4T1 cells = experiment: MTT cell viability assay; format: cell-based; details: Mus musculus, 48 h
Protocol: (§1) MDA-MB-231 (5000 cells per well), MDA-MB-468 (6000 cells per well), SUM159 (3000 cells per well), 4T1 (2000 cells per well), EMT6 (2000 cells per well), E0771 (3000 cells per well), MCF10A (5000 cells per well) and MCF12A (5000 cells per well) cells were seeded in 96-well culture plates. On the next day, cells were treated with either DMSO or indicated concentrations of SU056 for 48 h 3-(4,5-dimethylthiazol-2-yl)-2,5-diphenyltetrazolium bromide (MTT) (0.5 mg/mL) was dissolved in 1x PBS and 50 μL were added to each well and allowed to form formazan crystals (1–2 h) followed by removal of MTT. Formazan crystals were dissolved in DMSO and plates were scanned at 570nm using a Tecan multimode plate reader.

E0771 cells = experiment: MTT cell viability assay; format: cell-based; details: Mus musculus, 48 h
Protocol: as §1

MDA-MB-468 cells = experiment: MTT cell viability assay; format: cell-based; details: Homo sapiens, 48 h
Protocol: as §1

MDA-MB-231 cells = experiment: MTT cell viability assay; format: cell-based; details: Homo sapiens, MDA-MB-231, 48 h
Protocol: as §1

EMT6 cells = experiment: MTT cell viability assay; format: cell-based; details: Mus musculus, 48 h
Protocol: as §1

SUM159 cells = experiment: MTT cell viability assay; format: cell-based; details: Homo sapiens, 48 h
Protocol: as §1

[3] = Body weight during tumor xenograft treatment; format: in vivo, mouse; details: 50 mg/kg
Protocol: (§2) Female NOD-Scid gamma (NSG, Homozygous for Prkdc, Hemizygous for Il2rg<tm1Wjl>) (Strain #005557) and Balb/cJ (Strain#000651) (7–8 weeks old) mice were purchased from the Jackson Laboratory and housed under standard laboratory conditions. The Institutional Animal Care & Use Program of Oregon Health and Science University approved the protocol (#IP00003247). MDA-MB-231 (3 x 10^6), MDA-MB-468 (5 x 10^6), 4T1 (1 x 10^5) and EMT6 (1 x 10^5) cells were suspended in 100 μL of 1x PBS and injected subcutaneously in each mouse. Tumor growth was monitored regularly and once the tumors reached approximately around 50–100 mm^3, treatment with SU056 (50 mg/kg body weight given by oral gavage, 5 days per week) was started. Tumor size and body weight were measured once a week. At the end of treatment, mice were euthanized via deep anesthesia followed by cervical dislocation. Tumors were excised and weighed. Tumor samples were processed for immunoblotting for different markers.
Data S2. Effect of SU056 treatment on body weight, metastatic potential and pharmacokinetic profiling of SU056, related to Figure 2 and 3
Human, mouse and PDX models of TNBC were used for tumor xenograft studies. SU056 treatment was started when tumors reached around ~25-50 mm3 and continued until the experiment reached its 3-week endpoint. Body weight was monitored throughout the study to understand any change in dietary pattern. […]

[4] = system: MDA-MB-231 tumor xenograft; experiment: Subcutaneous tumor xenograft; format: in vivo, mouse; details: 50 mg/kg oral gavage, NSG mice
Protocol: as §2

[5] = system: MDA-MB-468 tumor xenograft; experiment: Subcutaneous tumor xenograft; format: in vivo, mouse; details: 50 mg/kg oral gavage, NSG mice
Protocol: as §2

With `O=C1OCC2=C1C(c1cccc(F)c1)c1cc3c(cc1N2CCO)OCO3` (stereo not drawn) [SU056, 9-(3-fluorophenyl)-5-(2-hydroxyethyl)-6,9-dihydro-[1,3]dioxolo[4,5-g]furo[3,4-b]quinolin-8(5H)-one] the “levels of YB-1 and RPL-11 in tumors” value [1] was “decrease”, the clonogenic potential ([2]; 0.5 μM, all TNBC cell lines) was “strong suppression” and the “number of colonies formed compared to untreated controls” value ([2]; 0.1, 0.25, and 0.5 μM, 7–10 days) was “significantly decreased”. For the same compound, the IC50 (4T1 cells) was 7150 ± 1260 nM, the IC50 (E0771 cells) was 1540 ± 140 nM and the IC50 (MDA-MB-468 cells) was 1360 ± 270 nM. The IC50 (MDA-MB-231 cells) was 1270 ± 190 nM, the IC50 (EMT6 cells) was 1500 ± 120 nM and the IC50 (SUM159 cells) was 1170 ± 340 nM. The “body weight of animals throughout treatment” value ([3]; MDA-MB-231, MDA-MB-468, 4T1, EMT6 models) was “remained the same”, the “body weight of animals throughout treatment” value ([3]; PDX models) was “remained the same” and the “tumor growth arrested compared to vehicle control” value [4] was 48%. The “tumor weight reduced compared with vehicle control” value [4] was 44.4%, the “primary tumor growth reduced compared with vehicle control” value [5] was 49.8% and the “tumor weight reduced compared with vehicle control” value [5] was 35.1%.
